Experimental data: US20240100063A1, “COMBINATION THERAPY OF PD-1 AXIS BINDING ANTAGONISTS AND LRRK2 INHITIBORS” (Hoffmann-La Roche Inc., priority 2020, published 2024)
Entries after “also recorded” stand apart in the source; their conditions may differ.

Legend:
DC2.4 SCR cells = assay: antigen cross-presentation assay on DC2.4 cells (FACS, anti-mouse H-2Kb/[…] antibody); type: cell-based; settings: overnight administration
Experimental: (§1) Cells were stained with anti-mouse H-2Kb/[…] antibody. […] F) FACS evaluation of human MART-1 T cell proliferation, upon co-culture with human cord blood derived dendritic cells pre-treated with the LRRK2 inhibitor LRRK2-IN-1. All the experiments were performed in triplicates.
(§2) Subsequently, we investigate whether the pre-treatment of freshly isolated mouse splenic dendritic cells with increasing concentrations of the compounds can enhance the OT-1 CD8a T cells activation upon co-culture. […] Finally, as for the genetic validation in DC2.4, we challenge the splenic derived dendritic cells treated with the different compounds in a killing assay were we measured the MC38 RFP-OVA cancer cell viability upon 6 days of co-culture with OT-1 CD8a T cells primed by mouse splenic dendritic cells pre-treated with the two LRRK2 inhibitors (FIG. 5-A).

MART-1 T Cells = assay: MART-1 T cell proliferation upon co-culture with pre-treated human cord blood derived dendritic cells; type: cell-based; settings: human MART-1 T cells primed by human cord blood derived dendritic cells, FIG. 4-F
Experimental: as §1, §2

MV3 cancer cells = assay: killing assay: MV3 viability upon co-culture with MART-1 T cells primed by pre-treated human cord blood derived dendritic cells; type: cell-based; settings: 6 days killing assay, increasing concentration, human setting
Description: (§3) A, E) Schematic representation of the killing assay experimental setup respectively in mouse and human setting. […] Data are normalized to DMSO treated dendritic cells co-cultured with CD8a T cells. F) Evaluation of MV3 cancer cells viability upon co-cultured with MART-1 T Cells primed by human cord blood derived dendritic cells pre-treated with the LRRK2 inhibitor LRRK2-IN-1. Data are normalized to MV3 cells co-cultured with T cells primed in the absence of MART1 peptide. All the experiments were performed in triplicates.
as §2

[1] = system: MC38 RFP-OVA cancer cells
Description: as §3, §2

MC-38 tumor cells [2] = assay: in vivo tumor growth, immunocompetent C57BL/6 mice engrafted with MC-38 tumor cells; settings: anti-PD-L1 10 mg/kg i.v. once then 5 mg/kg i.p. twice per week; for MC-38 tumor growth in comparison with vehicle treated mice: PFE-360 7.5 mg/kg, Mli-2 10 mg/kg per os twice per day, day zero to day 28
Experimental: (§4) The experiment was carried out with 6-8 weeks female C57BL/6 mice from Janvier Labs. All procedures described in this study have been reviewed and approved by the local ethic committee (CELEAG) and validated by the French Ministry of Research. Mice was hosted in TCS BSL-2 facility by groups of 5 individuals. Mice were allowed to acclimate to the environment for 5 days prior to the beginning of the experiment. During the efficacy study, mice were monitored daily for unexpected signs of distress. Body weight was monitored 3 times a week. Mice with a cumulative clinical score or with a body weight loss >25% were sacrificed.
Mice were injected subcutaneously with 0.5×10^6 MC-38 tumor cells in 50% Matrigel. Tumor cell engraftment was defined as day zero. At day 8, mice were randomized into 4 groups of 10 mice each, according to the tumor volume. Treatments were initiated at day 9, when the average tumor volume reached ˜150 mm3 as follows: • Group 1: vehicle, dose 200 μL twice per day per os, twice per week intraperitoneal and intravenously once at day 8 • Group 2: 7915: dose 300 mg/kg per os administration twice per day. • Group 3: anti PD-L1 (clone 6E11, atezolizumab mouse surrogate): dose 10 mg/kg intravenous injection once at day 8 and dose 5 mg/kg intraperitoneal injection twice per week. • Group 4: 7915+anti-PD-L1 (clone 6E11, atezolizumab mouse surrogate): dose 300 mg/kg per os injection twice per day. Anti PD-L1: dose 10 mg/kg intravenous injection once at day 8 and dose 5 mg/kg intraperitoneal injection twice per week.
7915 (cat. num. HY-18163 from MedChemExpress). LRRK2 inhibitor was administered as free base suspensions in vehicle [1% (w/v) Avicel RC-591 and 0.2% (v/v) polysorbate 80 (Tween 80) in reverse osmosis water].
The aim of this study was to address the in vivo effect on tumor progression of LRRK2 kinase inhibition by using the LRRK2 inhibitor 7915, alone or in combination with anti-PD-L1, in immunocompetent mice engrafted with MC-38 tumor cells. C57BL/6 mice were injected subcutaneously with 0.5×10^6 MC-38 tumor cells. Tumor cell engraftment was defined as day zero. […]

MC-38 tumor cells [3] = assay: in vivo tumor growth, immuno-deficient NSG mice engrafted with MC-38 tumor cells; design: species or system mouse
Experimental: as §4, with “NSG” for “C57BL/6”, “Jackson Laboratory.” for “Janvier Labs.”
Mice were injected subcutaneously with 0.5×10^6 MC-38 tumor cells in 50% Matrigel. Tumor cell engraftment was defined as day zero. At day 9, mice were randomized into 2 groups of 12 mice each, according to the tumor volume. Treatments were initiated at day 10, when the average tumor volume reached ˜150 mm3 as follows: • Group 1: vehicle, dose 200 μL twice per day per os • Group 2: GNE-7915: dose 300 mg/kg per os administration twice per day.
GNE-7915 (cat. num. HY-18163 from MedChemExpress). LRRK2 inhibitor was administered as free base suspensions in vehicle [1% (w/v) Avicel RC-591 and 0.2% (v/v) polysorbate 80 (Tween 80) in reverse osmosis water].
The aim of this study was to address the in vivo effect on tumor progression of LRRK2 kinase inhibition by using the LRRK2 inhibitor GNE-7915, in immuno-deficient mice engrafted with MC-38 tumor cells. NSG mice were injected subcutaneously with 0.5×10^6 MC-38 tumor cells. Tumor cell engraftment was defined as day zero. At day 9, mice were randomized into 2 groups.
Mice were injected subcutaneously with 0.5×10^6 MC-38 tumor cells in 50% Matrigel. Tumor cell engraftment was defined as day zero. At day 9, mice were randomized into 2 groups of 12 mice each, according to the tumor volume.
PFE-360 (cat. num. HY-120085 from MedChemExpress). […] LRRK2 inhibitors were administered as free base suspensions in vehicle [1% (w/v) Avicel RC-591 and 0.2% (v/v) polysorbate 80 (Tween 80) in reverse osmosis water]. […]

403 non-mutated kinases = assay: KINOMEScan in vitro kinase selectivity assay; type: binding, human; settings: for number of different kinases whose binding is inhibited by 90% or more: at 0.1 μM, 403 non-mutated kinases; for number of unrelated kinases inhibited to >90%: at lowest concentration to inhibit >90 LRRK2 (0.1 uM)
Experimental: FIG. 10: In vitro kinase selectivity test. […] As a reference, the pan-kinase inhibitor sunitinib was tested.
As a reference, the pan-kinase inhibitor sunitinib was tested.
Kinases other than LRRK2 are herein referred to as unrelated kinases. A selectivity score S can be determined to quantify selectivity, as shown in Example 8. In one embodiment, the selectivity score S(65) of the inhibitor (e.g. the LRRK2 inhibitor) is defined as the ratio of number of kinases inhibited by 65% of binding to their ligand as compared to binding to their ligand without the inhibitor divided by the number of kinases tested. In one embodiment, the selectivity score S(90) of the inhibitor (e.g. the LRRK2 inhibitor) is defined as the ratio of number of kinases inhibited by 90% of binding to their ligand as compared to binding to their ligand without the inhibitor divided by the number of kinases tested. In one embodiment, the selectivity score S(99) of the inhibitor (e.g. the LRRK2 inhibitor) is defined as the ratio of number of kinases inhibited by 99% of binding to their ligand as compared to binding to their ligand without the inhibitor divided by the number of kinases tested. In one embodiment, the selectivity score S is determined for a specified concentration (e.g., 0.1 μM, 1 μM, or 10 μM) of the inhibitor (e.g. the LRRK2 inhibitor). Kinase—ligand binding (and inhibition thereof) can be measured using assays as known in the art and hereinbefore described and as described in Example 8.
(§5) The in vitro kinase selectivity for the tested compounds were determined by running a KINOMEScan® (DiscoverX, CA, USA). […] Selectivity scores S(65), S(90) and S (99) in FIG. 11 are calculated as the ratio of number of non-mutated kinases inhibited by 65%, 90 or 99% divided by the total number of non-mutated kinases tested.

LRRK2 = LRRK2 (Homo sapiens, UniProt Q5S007); assay: KINOMEScan in vitro kinase selectivity assay, LRRK2; type: binding
LRRK2, sequence (Q5S007 whole entry): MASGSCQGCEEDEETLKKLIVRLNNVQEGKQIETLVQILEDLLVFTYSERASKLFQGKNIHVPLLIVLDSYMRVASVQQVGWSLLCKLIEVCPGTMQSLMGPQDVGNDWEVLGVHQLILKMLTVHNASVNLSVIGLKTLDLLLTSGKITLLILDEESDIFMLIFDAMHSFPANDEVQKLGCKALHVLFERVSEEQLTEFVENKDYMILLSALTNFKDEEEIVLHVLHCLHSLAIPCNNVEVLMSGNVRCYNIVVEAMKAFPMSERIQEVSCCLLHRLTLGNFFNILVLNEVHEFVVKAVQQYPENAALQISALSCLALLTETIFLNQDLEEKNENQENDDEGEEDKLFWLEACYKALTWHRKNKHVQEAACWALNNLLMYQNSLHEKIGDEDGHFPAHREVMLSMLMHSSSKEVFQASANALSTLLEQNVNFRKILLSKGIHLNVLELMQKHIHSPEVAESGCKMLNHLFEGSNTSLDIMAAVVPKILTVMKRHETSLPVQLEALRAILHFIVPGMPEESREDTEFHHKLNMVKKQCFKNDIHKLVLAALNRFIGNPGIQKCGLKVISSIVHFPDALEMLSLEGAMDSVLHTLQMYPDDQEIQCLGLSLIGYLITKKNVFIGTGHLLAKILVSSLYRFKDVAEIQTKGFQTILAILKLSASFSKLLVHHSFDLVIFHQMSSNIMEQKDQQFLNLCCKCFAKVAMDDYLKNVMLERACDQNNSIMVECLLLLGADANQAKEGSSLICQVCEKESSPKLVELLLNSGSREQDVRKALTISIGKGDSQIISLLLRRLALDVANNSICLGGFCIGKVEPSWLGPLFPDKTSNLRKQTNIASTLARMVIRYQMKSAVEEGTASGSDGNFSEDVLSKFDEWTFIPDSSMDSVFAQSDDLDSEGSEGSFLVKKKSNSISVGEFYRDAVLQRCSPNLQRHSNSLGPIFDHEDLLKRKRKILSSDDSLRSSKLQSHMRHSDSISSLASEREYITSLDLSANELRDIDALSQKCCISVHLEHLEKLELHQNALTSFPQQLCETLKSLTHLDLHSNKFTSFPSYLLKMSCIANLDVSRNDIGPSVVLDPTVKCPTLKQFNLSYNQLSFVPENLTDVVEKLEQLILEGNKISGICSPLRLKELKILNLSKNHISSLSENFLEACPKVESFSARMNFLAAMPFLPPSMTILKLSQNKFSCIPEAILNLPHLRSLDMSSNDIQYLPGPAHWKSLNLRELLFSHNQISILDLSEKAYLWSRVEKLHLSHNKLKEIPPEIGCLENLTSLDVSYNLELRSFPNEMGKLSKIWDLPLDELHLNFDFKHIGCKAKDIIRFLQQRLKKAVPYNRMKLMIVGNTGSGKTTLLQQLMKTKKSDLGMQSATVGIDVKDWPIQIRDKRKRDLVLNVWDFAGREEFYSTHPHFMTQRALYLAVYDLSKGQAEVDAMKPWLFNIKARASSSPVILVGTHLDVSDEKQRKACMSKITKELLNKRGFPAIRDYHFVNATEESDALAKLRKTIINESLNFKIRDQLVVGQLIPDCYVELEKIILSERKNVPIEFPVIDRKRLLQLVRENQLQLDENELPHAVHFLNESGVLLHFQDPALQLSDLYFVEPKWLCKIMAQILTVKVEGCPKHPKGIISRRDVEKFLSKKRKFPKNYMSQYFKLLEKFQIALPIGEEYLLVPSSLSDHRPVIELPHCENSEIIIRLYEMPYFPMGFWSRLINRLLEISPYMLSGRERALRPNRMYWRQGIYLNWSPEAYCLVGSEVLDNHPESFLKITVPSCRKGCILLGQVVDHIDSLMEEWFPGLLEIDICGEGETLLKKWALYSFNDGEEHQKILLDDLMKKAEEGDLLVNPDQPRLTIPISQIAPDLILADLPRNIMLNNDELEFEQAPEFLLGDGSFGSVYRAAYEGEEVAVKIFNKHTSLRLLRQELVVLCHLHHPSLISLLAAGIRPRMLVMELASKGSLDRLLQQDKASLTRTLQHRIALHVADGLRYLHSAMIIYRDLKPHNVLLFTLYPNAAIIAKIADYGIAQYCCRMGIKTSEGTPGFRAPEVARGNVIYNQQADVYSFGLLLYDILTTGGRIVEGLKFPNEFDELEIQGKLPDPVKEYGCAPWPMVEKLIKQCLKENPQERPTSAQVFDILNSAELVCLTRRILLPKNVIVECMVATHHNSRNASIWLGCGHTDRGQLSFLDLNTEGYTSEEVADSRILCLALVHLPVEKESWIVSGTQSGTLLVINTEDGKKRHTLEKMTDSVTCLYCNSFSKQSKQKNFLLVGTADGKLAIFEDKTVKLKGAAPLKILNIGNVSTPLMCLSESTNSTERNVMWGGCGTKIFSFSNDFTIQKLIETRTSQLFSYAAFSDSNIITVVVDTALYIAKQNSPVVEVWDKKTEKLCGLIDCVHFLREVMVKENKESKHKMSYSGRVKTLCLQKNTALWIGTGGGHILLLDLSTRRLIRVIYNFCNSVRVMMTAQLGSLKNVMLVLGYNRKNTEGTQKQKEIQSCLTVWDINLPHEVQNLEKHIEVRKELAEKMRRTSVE
Experimental: as §5

OT-1 CD8a T cells = assay: OT-1 CD8a T cell proliferation upon co-culture with dendritic cells pre-treated with LRRK2 inhibitors; type: cell-based, mouse
Experimental: as §1, §2

[4] = PFE-360 7.5 mg/kg, Mli-2 10 mg/kg per os twice per day, day zero to day 24

Compound | T cell mediated cytotoxicity (MC38 RFP-OVA cancer cell viability) [1] | MC-38 tumor growth in comparison with vehicle treated mice (MC-38 tumor cells [2]) | MC-38 tumor growth in comparison with vehicle treated mice (MC-38 tumor cells [3]; [4]) | number of different kinases whose binding is inhibited by 90% or more (403 non-mutated kinases) | number of unrelated kinases inhibited to >90% (403 non-mutated kinases) | inhibition at 0.1 µM (LRRK2) [%] | other results
COc1cc(C(=O)N2CCC(N3CCN(C)CC3)CC2)ccc1Nc1ncc2c(n1)N(C)c1ccccc1C(=O)N2C [LRRK2-IN-1, 2-[2-methoxy-4-[4-(4-methylpiperazin-1-yl)piperidine-1-carbonyl]anilino]-5,11-dimethyl-pyrimido[4,5-b][1,4]benzodiazepin-6-one] | – | – | – | – | – | – | concentration showing an effect on antigen cross-presentation (DC2.4 SCR cells): 1 µM; cross-presentation mediated T cell proliferation (MART-1 T Cells): already at lowest concentration a stable increase; also recorded: increased the T cells proliferation; MV3 cancer cell viability (MV3 cancer cells): dose dependent reduction of MV3 cancer cell viability
C[C@@H]1CN(c2cc(-c3n[nH]c4ccc(OC5(C)CC5)cc34)ncn2)C[C@H](C)O1 [MLi-2, cis-2,6-dimethyl-4-[6-[5-(1-methylcyclopropoxy)-1H-indazol-3-yl]pyrimidin-4-yl]morpholine] | increased T cell mediated cytotoxicity | inducing tumor growth inhibition; also recorded: significantly decrease MC-38 tumor growth | not modifying tumor growth; also recorded: not impacting MC-38 tumor growth | three | 3 | – | –
Cn1cc(-c2c[nH]c3ncnc(N4CCOCC4)c23)cc1C#N [PFE-360, 1-methyl-4-(4-morpholino-7H-pyrrolo[2,3-d]pyrimidin-5-yl)pyrrole-2-carbonitrile] | – | inducing tumor growth inhibition; also recorded: significantly decrease MC-38 tumor growth | not modifying tumor growth; also recorded: not impacting MC-38 tumor growth | 9 | 9 | 100 | fold more selective than sunitinib (403 non-mutated kinases; at all concentration on average): ~2 fold
CCNc1nc(Nc2cc(F)c(C(=O)N3CCOCC3)cc2OC)ncc1C(F)(F)F [compound 7915, [4-[[4-(ethylamino)-5-(trifluoromethyl)pyrimidin-2-yl]amino]-2-fluoro-5-methoxy-phenyl]-morpholino-methanone] | increased T cell mediated cytotoxicity | – | – | – | – | – | cross-presentation mediated T cell proliferation (OT-1 CD8a T cells; murine OT1 CD8a T cells, FIG. 4-H): already at lowest concentration a stable increase; tumor growth inhibition (MC-38 tumor cells [2]; MC-38, vs vehicle, 7915 300 mg/kg per os twice per day, day zero to day 15): 82%; MC-38 tumor growth in comparison with vehicle treated mice (MC-38 tumor cells [3]; GNE-7915 300 mg/kg per os twice per day, day zero to day 21, 300 mg/kg): not modifying tumor growth; also recorded: not impacting MC-38 tumor growth
CNc1nc(Nc2cnn(C3CCN(C4COC4)CC3F)c2Cl)ncc1C(F)(F)F (stereo not drawn) [compound 9605, N2-[5-chloro-1-[3-fluoro-1-(oxetan-3-yl)-4-piperidyl]pyrazol-4-yl]-N4-methyl-5-(trifluoromethyl)pyrimidine-2,4-diamine] | increased T cell mediated cytotoxicity | – | – | – | – | – | concentration at which increased T cell proliferation is shown (OT-1 CD8a T cells; OT-1 CD8a T cells co-cultured with pre-treated mouse splenic dendritic cells): ≥ 100 nM
CCN(CC)CCNC(=O)c1c(C)[nH]c(/C=C2\C(=O)Nc3ccc(F)cc32)c1C [sunitinib] | – | – | – | – | – | < 50 | –
